The target of the assay is recombinant Human Phosphodiesterase B2 (PDE4B2) (Homo sapiens, UniProt Q07343). Put plainly: Human Phosphodiesterase B2 Alpha Screen Assay. Format: biochemical. To be noted: cAMP substrate, Alpha Screen cAMP kit, 60 minutes at room temperature. The procedure: Human Phosphodiesterase B2 Alpha Screen Assay
Sequence of recombinant Human Phosphodiesterase B2 (PDE4B2) (Q07343 1-564 isoform Q07343-2): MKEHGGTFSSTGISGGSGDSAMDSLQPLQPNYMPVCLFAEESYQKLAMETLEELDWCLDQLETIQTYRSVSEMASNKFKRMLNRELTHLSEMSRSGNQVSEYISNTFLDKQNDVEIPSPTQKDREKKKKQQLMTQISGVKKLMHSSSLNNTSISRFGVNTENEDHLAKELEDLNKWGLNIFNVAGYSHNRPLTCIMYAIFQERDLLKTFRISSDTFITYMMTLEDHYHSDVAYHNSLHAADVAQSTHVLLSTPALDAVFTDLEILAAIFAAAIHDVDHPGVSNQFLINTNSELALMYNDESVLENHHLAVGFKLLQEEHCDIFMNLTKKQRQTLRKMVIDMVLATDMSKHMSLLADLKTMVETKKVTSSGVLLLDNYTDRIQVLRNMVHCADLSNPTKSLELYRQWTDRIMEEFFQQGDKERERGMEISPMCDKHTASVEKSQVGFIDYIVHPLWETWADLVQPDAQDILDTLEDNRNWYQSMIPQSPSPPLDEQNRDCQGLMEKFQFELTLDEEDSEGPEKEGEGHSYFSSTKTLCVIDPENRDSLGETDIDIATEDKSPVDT
The assay uses recombinant Human Phosphodiesterase B2 (PDE4B2) produced in house (PrAZL0133), stored at −20° C. The substrate uses cAMP, part of the Alpha Screen cAMP kit (Perkin Elmer, Cat# 6760625M), stored at 4° C. The Alpha Screen kit also includes biotinylated cAMP, acceptor and donor beads.
The assay additions were as follows: Test compounds and controls were added to white 384-well flat-bottom plates (Greiner, Cat# 781075), 0.2 μl in 100% DMSO, followed by 10 μl PDE4B2 in reaction buffer. The reaction buffer constitution was: 50 mM Tris (pH 7.5), 8.3 mM MgCl2, 1.7 mM EGTA and 0.01% (w/v) Brij®35. The enzyme and the compounds were incubated at room temperature for 15 minutes. Then 10 μl cAMP in reaction buffer was added. The assay was stopped after 60 minutes incubation at room temperature by adding 10 μl acceptor beads in detection buffer with 40 mM EDTA. The detection buffer constitution was: 5 mM Tris (pH 7.5), 0.1% (w/v) BSA and 0.1% (v/v) Tween 20. This addition followed by an addition of 10 μl donor beads in detection buffer, with biotinylated cAMP. The plates were then incubated, dark at room temperature, for 5 hours followed by measurement on a Fusion™-α analyser. IC50 values (presented in Table 1) were determined using Xlfit curve fitting using model 205.
In general, IC50 refers to the concentration at which inhibition is half-maximal. With `CSc1cccc(-n2c(=O)n([C@H]3CC[C@@H](NC(=O)C(C)(C)O)CC3)c(=O)c3cc(F)cnc32)c1` [Example 59, N-{cis-4-[6-fluoro-1-[3-(methylthio)phenyl]-2,4-dioxo-1,4-dihydropyrido[2,3-d]pyrimidin-3(2H)-yl]cyclohexyl}-2-hydroxy-2-methylpropanamide], the IC50 was determined as 14.9 nM. As for `O=C(N[C@H]1CC[C@@H](n2c(=O)c3cc(F)cnc3n(-c3ccc(F)c(F)c3)c2=O)CC1)c1ccc(Cl)cc1O` [Example 18, 4-chloro-N-{cis-4-[1-(3,4-difluorophenyl)-6-fluoro-2,4-dioxo-1,4-dihydropyrido[2,3-d]pyrimidin-3(2H)-yl]cyclohexyl}-2-hydroxybenzamide], the IC50 is 2.7 nM. With `Cc1ccc(C(=O)N[C@H]2CC[C@@H](n3c(=O)c4cc(F)cnc4n(-c4ccc(F)c(F)c4)c3=O)CC2)cc1O` [Example 15, N-{cis-4-[1-(3,4-difluorophenyl)-6-fluoro-2,4-dioxo-1,4-dihydropyrido[2,3-d]pyrimidin-3(2H)-yl]cyclohexyl}-3-hydroxy-4-methylbenzamide] the figure was 1.3 nM; with `COC(=O)CCC(=O)N[C@H]1CC[C@@H](n2c(=O)c3cc(F)cnc3n(-c3ccc(F)c(F)c3)c2=O)CC1` [Example 23, methyl 4-({cis-4-[1-(3,4-difluorophenyl)-6-fluoro-2,4-dioxo-1,4-dihydropyrido[2,3-d]pyrimidin-3(2H)-yl]cyclohexyl}amino)-4-oxobutanoate], 3.8 nM; with `O=C(N[C@H]1CC[C@@H](n2c(=O)c3cc(F)cnc3n(-c3ccc(F)c(F)c3)c2=O)CC1)c1cccc([N+](=O)[O-])c1` [Example 86, N-{cis-4-[1-(3,4-difluorophenyl)-6-fluoro-2,4-dioxo-1,4-dihydropyrido[2,3-d]pyrimidin-3(2H)-yl]cyclohexyl}-3-nitrobenzamide], 4.13 nM. With `CSc1cccc(-n2c(=O)n([C@H]3CC[C@@H](NS(=O)(=O)c4ccccc4)CC3)c(=O)c3cc(F)cnc32)c1` [Example 60, N-{cis-4-[6-fluoro-1-[3-(methylthio)phenyl]-2,4-dioxo-1,4-dihydropyrido[2,3-d]pyrimidin-3(2H)-yl]cyclohexyl}benzenesulfonamide], the IC50 came out at 32.4 nM. With `O=C(Cc1ccc(O)cc1)N[C@H]1CC[C@@H](n2c(=O)c3cc(F)cnc3n(-c3ccc(F)c(F)c3)c2=O)CC1` [Example 8, N-{cis-4-[1-(3,4-difluorophenyl)-6-fluoro-2,4-dioxo-1,4-dihydropyrido[2,3-d]pyrimidin-3(2H)-yl]cyclohexyl}-2-(4-hydroxyphenyl)acetamide], the IC50 stood at 2.2 nM. In the case of `O=C(N[C@H]1CC[C@@H](n2c(=O)c3cc(F)cnc3n(-c3ccc(F)c(F)c3)c2=O)CC1)c1c(O)cccc1F` [Example 30, N-{cis-4-[1-(3,4-difluorophenyl)-6-fluoro-2,4-dioxo-1,4-dihydropyrido[2,3-d]pyrimidin-3(2H)-yl]cyclohexyl}-2-fluoro-6-hydroxybenzamide], the IC50 was found to be 1.1 nM. With `CS(=O)(=O)c1cccc(-n2c(=O)n([C@H]3CC[C@@H](NC(=O)CO)CC3)c(=O)c3cc(F)cnc32)c1` [Example 44, N-{cis-4-[6-fluoro-1-[3-(methylsulfonyl)phenyl]-2,4-dioxo-1,4-dihydropyrido[2,3-d]pyrimidin-3(2H)-yl]cyclohexyl}-2-hydroxyacetamide] the figure was 432 nM. `O=C(N[C@H]1CC[C@@H](n2c(=O)c3cc(F)cnc3n(-c3ccc(F)c(F)c3)c2=O)CC1)c1ccccc1O` [Example 10, N-{cis-4-[1-(3,4-difluorophenyl)-6-fluoro-2,4-dioxo-1,4-dihydropyrido[2,3-d]pyrimidin-3(2H)-yl]cyclohexyl}-2-hydroxybenzamide]: the half-maximal inhibitory concentration (IC50) is 2.6 nM. Consider `O=C(c1n[nH]c2ccccc12)N1CC[C@@H](n2c(=O)c3cc(F)cnc3n(-c3ccc(F)c(F)c3)c2=O)C1` [Example 79, 1-(3,4-difluorophenyl)-6-fluoro-3-[(3R)-1-(1H-indazol-3-ylcarbonyl)pyrrolidin-3-yl]pyrido[2,3-d]pyrimidine-2,4(1H,3H)-dione], for which the concentration for half-maximal inhibition (IC50) stood at 15.4 nM. `COC(=O)c1cccc(-n2c(=O)n([C@H]3CC[C@@H](NC(=O)c4cn5ccccc5n4)CC3)c(=O)c3cc(F)cnc32)c1` [Example 69, methyl 3-[6-fluoro-3-{cis-4-[(imidazo[1,2-a]pyridin-2-ylcarbonyl)amino]cyclohexyl}-2,4-dioxo-3,4-dihydropyrido[2,3-d]pyrimidin-1(2H)-yl]benzoate]: the concentration for half-maximal inhibition (IC50) was found to be 1 nM. As to `O=C(N[C@H]1CC[C@@H](n2c(=O)c3cc(F)cnc3n(-c3ccc(F)c(F)c3)c2=O)CC1)c1nc2ccccc2s1` [Example 104, N-{cis-4-[1-(3,4-difluorophenyl)-6-fluoro-2,4-dioxo-1,4-dihydropyrido[2,3-d]pyrimidin-3(2H)-yl]cyclohexyl}-1,3-benzothiazole-2-carboxamide], the half-inhibitory concentration (IC50) is 2.09 nM.

For `O=C(c1n[nH]c2ccccc12)N1CC[C@H](n2c(=O)c3cc(F)cnc3n(-c3ccc(F)c(F)c3)c2=O)C1` [Example 83, 1-(3,4-difluorophenyl)-6-fluoro-3-[(3S)-1-(1H-indazol-3-ylcarbonyl)pyrrolidin-3-yl]pyrido[2,3-d]pyrimidine-2,4(1H,3H)-dione], the IC50 was found to be 9.2 nM. Turning to `CSc1cccc(-n2c(=O)n([C@H]3CC[C@@H](NC(=O)c4ccco4)CC3)c(=O)c3cc(F)cnc32)c1` [Example 54, N-{cis-4-[6-fluoro-1-[3-(methylthio)phenyl]-2,4-dioxo-1,4-dihydropyrido[2,3-d]pyrimidin-3(2H)-yl]cyclohexyl}-2-furamide], the IC50 is 3.9 nM. Take `CSc1cccc(-n2c(=O)n([C@H]3CC[C@@H](NC(=O)CO)CC3)c(=O)c3cc(F)cnc32)c1` [Example 39, N-{cis-4-[6-fluoro-1-[3-(methylthio)phenyl]-2,4-dioxo-1,4-dihydropyrido[2,3-d]pyrimidin-3(2H)-yl]cyclohexyl}-2-hydroxyacetamide]: the IC50 is 23.7 nM. To `O=C(N[C@H]1CC[C@@H](n2c(=O)c3cc(F)cnc3n(-c3ccc(F)c(F)c3)c2=O)CC1)c1ccc2[nH]ccc2c1` [Example 85, N-{cis-4-[1-(3,4-difluorophenyl)-6-fluoro-2,4-dioxo-1,4-dihydropyrido[2,3-d]pyrimidin-3(2H)-yl]cyclohexyl}-1H-indole-5-carboxamide] belongs 0.996 nM.

In the case of `COC(=O)c1cccc(-n2c(=O)n([C@H]3CC[C@@H](NC(=O)C4CCCCC4)CC3)c(=O)c3cc(F)cnc32)c1` [Example 75, methyl 3-[3-{cis-4-[(cyclohexylcarbonyl)amino]cyclohexyl}-6-fluoro-2,4-dioxo-3,4-dihydropyrido[2,3-d]pyrimidin-1(2H)-yl]benzoate], the IC50 was determined as 2.6 nM. Regarding `O=C(N[C@H]1CC[C@@H](n2c(=O)c3cc(F)cnc3n(-c3ccc(F)c(F)c3)c2=O)CC1)c1cc2cccnc2[nH]1` [Example 103, N-{cis-4-[1-(3,4-difluorophenyl)-6-fluoro-2,4-dioxo-1,4-dihydropyrido[2,3-d]pyrimidin-3(2H)-yl]cyclohexyl}-1H-pyrrolo[2,3-b]pyridine-2-carboxamide], the IC50 worked out at 0.741 nM.
